Results on 31 molecules are retold here after patent US11753411B2, “Substituted pyrazolo[1,5-a]pyrimidines as TYK2 pseudokinase ligands” (Ventyx Biosciences, Inc., priority 2019, dated 2023).

Bounds are passed on as bounds.

For this assay, the system named is IFN-a/Jak1 Tyk2. In words: Co-stimulation assay in lysed whole blood: IFNa (JAK1/TYK2) stimulated STAT1 phosphorylation. It counts as cell-based. The conditions noted are these: 100 ng/mL IFNa (with 10 ng/mL GM-CSF), pSTAT by flow cytometry. Put shortly:
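Lysed human whole blood (RBC-lysed, resuspended in cRPMI) pre-incubated with compound 1 h at 37 °C, then stimulated 20 min with IFNa 100 ng/mL plus GM-CSF 10 ng/mL (final). Fixed, permeabilised, stained for pSTAT1 (PE) and pSTAT5 (AF488); flow cytometry read-out, ≥5,000–10,000 cells acquired.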

As usually defined, the IC50 is the concentration that gives 50% inhibition. A low value points to greater potency. As for `CNc1cc(Nc2cc(C#N)cc3c2OCCO3)nc2c(NC(=O)NC3CCC3)cnn12` [Compound 106, 1-(5-((7-cyano-2,3-dihydrobenzo[b][1,4]dioxin-5-yl)amino)-7-(methylamino)pyrazolo[1,5-a]pyrimidin-3-yl)-3-cyclobutylurea], the IC50 (Homo sapiens, 20 min) is 1000 to 10000 nM.
Under “Homo sapiens, 20 min”, `CNC(=O)Nc1cnn2c(NC)cc(Nc3ccc4c(c3)OCCO4)nc12` [Compound 107, 1-(5-((2,3-dihydrobenzo[b][1,4]dioxin-6-yl)amino)-7-(methylamino)pyrazolo[1,5-a]pyrimidin-3-yl)-3-methylurea] showed an IC50 of 1000 to 10000 nM.
On the same count and under the same terms, to `CNc1cc(Nc2cccc3c2OCCO3)nc2c(NC(=O)NC3CCCC3)cnn12` [Compound 108, 1-cyclopentyl-3-(5-((2,3-dihydrobenzo[b][1,4]dioxin-5-yl)amino)-7-(methylamino)pyrazolo[1,5-a]pyrimidin-3-yl)urea] belongs below 1000 nM; to `C#Cc1cc(Nc2cc(NC)n3ncc(NC(=O)NC)c3n2)c2c(c1)OCCO2` [Compound 109, 1-(5-((7-ethynyl-2,3-dihydrobenzo[b][1,4]dioxin-5-yl)amino)-7-(methylamino)pyrazolo[1,5-a]pyrimidin-3-yl)-3-methylurea], below 1000 nM; to `CNC(=O)Nc1c(F)nn2c(NC)cc(Nc3cccc4c3OCCO4)nc12` [Compound 110, 1-(5-((2,3-dihydrobenzo[b][1,4]dioxin-5-yl)amino)-2-fluoro-7-(methylamino)pyrazolo[1,5-a]pyrimidin-3-yl)-3-methylurea], at least 10000 nM.
The molecule `C#CCNC(=O)Nc1cnn2c(NC)cc(Nc3cc(F)cc4c3OCCO4)nc12` [Compound 111, 1-(5-((7-fluoro-2,3-dihydrobenzo[b][1,4]dioxin-5-yl)amino)-7-(methylamino)pyrazolo[1,5-a]pyrimidin-3-yl)-3-(prop-2-yn-1-yl)urea] had an IC50 (Homo sapiens, 20 min) below 1000 nM.
On the same count and under the same terms, to `CNc1cc(Nc2cccc3c2OCCO3)nc2c(NC(=O)NCCOC)cnn12` [Compound 112, 1-(5-((2,3-dihydrobenzo[b][1,4]dioxin-5-yl)amino)-7-(methylamino)pyrazolo[1,5-a]pyrimidin-3-yl)-3-(2-methoxyethyl)urea] belongs below 1000 nM; to `CNc1cc(Nc2cc(F)cc3c2OCCO3)nc2c(NC(=O)NCCOC)cnn12` [Compound 113, 1-(5-((7-fluoro-2,3-dihydrobenzo[b][1,4]dioxin-5-yl)amino)-7-(methylamino)pyrazolo[1,5-a]pyrimidin-3-yl)-3-(2-methoxyethyl)urea], below 1000 nM; to `CNc1cc(Nc2cc(F)cc3c2OCCO3)nc2c(NC(=O)NCC#N)cnn12` [Compound 114, 1-(cyanomethyl)-3-(5-((7-fluoro-2,3-dihydrobenzo[b][1,4]dioxin-5-yl)amino)-7-(methylamino)pyrazolo[1,5-a]pyrimidin-3-yl)urea], below 1000 nM.
Still for that read-out and setting: under `CNC(=O)Nc1cnn2c(NC)cc(Nc3cccc4c3OC(F)(F)O4)nc12` [Compound 115, 1-(5-((2,2-difluorobenzo[d][1,3]dioxol-4-yl)amino)-7-(methylamino)pyrazolo[1,5-a]pyrimidin-3-yl)-3-methylurea] stands 1000 to 10000 nM.
Same read-out and setting: to `CNC(=O)Nc1cnn2c(NC)cc(Nc3cccc4c3OC(C)(C)O4)nc12` [Compound 116, 1-(5-((2,2-dimethylbenzo[d][1,3]dioxol-4-yl)amino)-7-(methylamino)pyrazolo[1,5-a]pyrimidin-3-yl)-3-methylurea] belongs 1000 to 10000 nM; to `CNc1cc(Nc2cccc3c2OCCO3)nc2c(NC(=O)NC3COC3)cnn12` [Compound 117, 1-(5-((2,3-dihydrobenzo[b][1,4]dioxin-5-yl)amino)-7-(methylamino)pyrazolo[1,5-a]pyrimidin-3-yl)-3-(oxetan-3-yl)urea], below 1000 nM.
With `CNc1cc(Nc2cc(F)cc3c2OCCO3)nc2c(NC(=O)NCC(N)=O)cnn12` [Compound 118, 2-(3-(5-((7-fluoro-2,3-dihydrobenzo[b][1,4]dioxin-5-yl)amino)-7-(methylamino)pyrazolo[1,5-a]pyrimidin-3-yl)ureido)acetamide], under “Homo sapiens, 20 min”, the IC50 was below 1000 nM.
As to `CNc1cc(Nc2cccc3c2OCCO3)nc2c(NC(=O)NC(C)C#N)cnn12` (stereo not shown) [Compound 119, 1-(1-cyanoethyl)-3-(5-((2,3-dihydrobenzo[b][1,4]dioxin-5-yl)amino)-7-(methylamino)pyrazolo[1,5-a]pyrimidin-3-yl)urea], the IC50 (Homo sapiens, 20 min) is below 1000 nM.
The same measure, in the same setting: under `CNc1cc(Nc2cc(F)cc3c2OCCO3)nc2c(NC(=O)NC(C)C#N)cnn12` (stereo not shown) [Compound 120, 1-(1-cyanoethyl)-3-(5-((7-fluoro-2,3-dihydrobenzo[b][1,4]dioxin-5-yl)amino)-7-(methylamino)pyrazolo[1,5-a]pyrimidin-3-yl)urea] stands below 1000 nM.
The same measure, in the same setting: to `CNc1cc(Nc2cccc3c2OCCO3)nc2c(NC(=O)N[C@@H](C)C#N)cnn12` [Compound 121, (S)-1-(1-cyanoethyl)-3-(5-((2,3-dihydrobenzo[b][1,4]dioxin-5-yl)amino)-7-(methylamino)pyrazolo[1,5-a]pyrimidin-3-yl)urea] belongs below 1000 nM; to `CNc1cc(Nc2cccc3c2OCCO3)nc2c(NC(=O)N[C@H](C)C#N)cnn12` [Compound 122, (R)-1-(1-cyanoethyl)-3-(5-((2,3-dihydrobenzo[b][1,4]dioxin-5-yl)amino)-7-(methylamino)pyrazolo[1,5-a]pyrimidin-3-yl)urea], below 1000 nM; to `C#C[C@H](C)NC(=O)Nc1cnn2c(NC)cc(Nc3cccc4c3OCCO4)nc12` [Compound 123, (S)-1-(but-3-yn-2-yl)-3-(5-((2,3-dihydrobenzo[b][1,4]dioxin-5-yl)amino)-7-(methylamino)pyrazolo[1,5-a]pyrimidin-3-yl)urea], below 1000 nM.
With `CNc1cc(Nc2cc(F)cc3c2OCCO3)nc2c(NC(N)=O)cnn12` [Compound 124, 1-(5-((7-fluoro-2,3-dihydrobenzo[b][1,4]dioxin-5-yl)amino)-7-(methylamino)pyrazolo[1,5-a]pyrimidin-3-yl)urea], where the note is “Homo sapiens, 20 min”, the IC50 is below 1000 nM.
For the molecule `CNc1cc(Nc2cccc3c2OCCO3)nc2c(NC(=O)NC3CS(=O)(=O)C3)cnn12` [Compound 125, 1-(5-((2,3-dihydrobenzo[b][1,4]dioxin-5-yl)amino)-7-(methylamino)pyrazolo[1,5-a]pyrimidin-3-yl)-3-(1,1-dioxidothietan-3-yl)urea], where the note is “Homo sapiens, 20 min”, the IC50 was in the range of 1000 to 10000 nM.
The same measure, in the same setting: to `CNc1cc(Nc2cc(F)cc3c2OCCO3)nc2c(NC(=O)NC3CS(=O)(=O)C3)cnn12` [Compound 126, 1-(1,1-dioxidothietan-3-yl)-3-(5-((7-fluoro-2,3-dihydrobenzo[b][1,4]dioxin-5-yl)amino)-7-(methylamino)pyrazolo[1,5-a]pyrimidin-3-yl)urea] belongs 1000 to 10000 nM.
On the same count and under the same terms, under `CNc1cc(Nc2cccc3cccnc23)nc2c(NC(=O)NCC#N)cnn12` [Compound 127, 1-(cyanomethyl)-3-(7-(methylamino)-5-(quinolin-8-ylamino)pyrazolo[1,5-a]pyrimidin-3-yl)urea] stands below 1000 nM; under `CNc1cc(Nc2cc(C)cc(C)c2)nc2c(NC(=O)NCC#N)cnn12` [Compound 128, 1-(cyanomethyl)-3-(5-((3,5-dimethylphenyl)amino)-7-(methylamino)pyrazolo[1,5-a]pyrimidin-3-yl)urea], below 1000 nM; under `CNc1cc(Nc2cc(C)ccc2OC)nc2c(NC(=O)NCC#N)cnn12` [Compound 129, 1-(cyanomethyl)-3-(5-((2-methoxy-5-methylphenyl)amino)-7-(methylamino)pyrazolo[1,5-a]pyrimidin-3-yl)urea], below 1000 nM.
The same measure, in the same setting: under `CNc1cc(-c2cn(C(C)C)c3ncccc23)nc2c(NC(=O)NCC#N)cnn12` [Compound 130, 1-(cyanomethyl)-3-(5-(1-isopropyl-1H-pyrrolo[2,3-b]pyridin-3-yl)-7-(methylamino)pyrazolo[1,5-a]pyrimidin-3-yl)urea] stands below 1000 nM; under `CNc1cc(Nc2cccc3occc23)nc2c(NC(=O)NCC#N)cnn12` [Compound 131, 1-(5-(benzofuran-4-ylamino)-7-(methylamino)pyrazolo[1,5-a]pyrimidin-3-yl)-3-(cyanomethyl)urea], below 1000 nM.
For the molecule `CNc1cc(Nc2cccc3nccnc23)nc2c(NC(=O)NCC#N)cnn12` [Compound 132, 1-(cyanomethyl)-3-(7-(methylamino)-5-(quinoxalin-5-ylamino)pyrazolo[1,5-a]pyrimidin-3-yl)urea], for the setting “Homo sapiens, 20 min”, the IC50 is below 1000 nM.
Same read-out and setting: under `CNc1cc(Nc2cc(F)cc3c2OCCO3)nc2c(NC(=O)NCC(F)F)cnn12` [Compound 133, 1-(2,2-difluoroethyl)-3-(5-((7-fluoro-2,3-dihydrobenzo[b][1,4]dioxin-5-yl)amino)-7-(methylamino)pyrazolo[1,5-a]pyrimidin-3-yl)urea] stands 1000 to 10000 nM; under `CNc1cc(Nc2cccc3c2OCCO3)nc2c(NC(=O)NCC(F)F)cnn12` [Compound 134, 1-(2,2-difluoroethyl)-3-(5-((2,3-dihydrobenzo[b][1,4]dioxin-5-yl)amino)-7-(methylamino)pyrazolo[1,5-a]pyrimidin-3-yl)urea], 1000 to 10000 nM; under `C#CCNC(=O)Nc1cnn2c(NC)cc(Nc3c(F)ccc4c3OCCO4)nc12` [Compound 135, 1-(5-((6-fluoro-2,3-dihydrobenzo[b][1,4]dioxin-5-yl)amino)-7-(methylamino)pyrazolo[1,5-a]pyrimidin-3-yl)-3-(prop-2-yn-1-yl)urea], 1000 to 10000 nM.
On to `CNc1cc(Nc2c(F)ccc3c2OCCO3)nc2c(NC(=O)NCC#N)cnn12` [Compound 136, 1-(cyanomethyl)-3-(5-((6-fluoro-2,3-dihydrobenzo[b][1,4]dioxin-5-yl)amino)-7-(methylamino)pyrazolo[1,5-a]pyrimidin-3-yl)urea], for which the IC50 (lysed human whole blood, 20 minutes) lay in the range of 1000 to 10000 nM.
